Experiment [1] addresses Ephrin type-A receptor 5 (Homo sapiens) (UniProt P54756). The experiment in a line: Enzymatic radiometric [Km ATP] KinaseProfiler LeadHunter assay, kinase: EphA5, catalogue number: 14-639KP The assay has been performed by Eurofins Discovery. The conditions noted are these: ATP concentration 10.0 uM, Test compound concentration 10.0 uM.
The target in experiment [2] is Serine/threonine-protein kinase pim-1 (Homo sapiens) (UniProt P11309). Description: Enzymatic radiometric [Km ATP] KinaseProfiler LeadHunter assay, kinase: Pim-1, catalogue number: 14-573KP The assay has been performed by Eurofins Discovery. The conditions noted are these: ATP concentration 90.0 uM, Test compound concentration 10.0 uM.
The target in experiment [3] is Insulin-like growth factor 1 receptor (Homo sapiens) (UniProt P08069). Description: Enzymatic radiometric [Km ATP] KinaseProfiler LeadHunter assay, kinase: IGF-1R, catalogue number: 14-465KP The assay has been performed by Eurofins Discovery. The conditions noted are these: ATP concentration 200.0 uM, Test compound concentration 10.0 uM.
For experiment [4], the target named is ALK tyrosine kinase receptor (Homo sapiens) (UniProt Q9UM73). Description: Enzymatic radiometric [Km ATP] KinaseProfiler LeadHunter assay, kinase: ALK, catalogue number: 14-555KP The assay has been performed by Eurofins Discovery. The conditions noted are these: ATP concentration 200.0 uM, Test compound concentration 10.0 uM.
For experiment [5], the target named is Serine/threonine-protein kinase PAK 2 (Homo sapiens) (UniProt Q13177). Description: Enzymatic radiometric [Km ATP] KinaseProfiler LeadHunter assay, kinase: PAK2, catalogue number: 14-481KP The assay has been performed by Eurofins Discovery. The conditions noted are these: ATP concentration 90.0 uM, Test compound concentration 10.0 uM.
Experiment [6] concerns the target RAF proto-oncogene serine/threonine-protein kinase (Homo sapiens) (UniProt P04049). Description: Enzymatic radiometric [Km ATP] KinaseProfiler LeadHunter assay, kinase: c-RAF, catalogue number: 14-352KP The assay has been performed by Eurofins Discovery. The conditions noted are these: ATP concentration 120.0 uM, Test compound concentration 10.0 uM.
In experiment [7] the target is T1, Interleukin-1 receptor-associated kinase 4 (Homo sapiens) (UniProt Q9NWZ3).
T1 sequence (whole entry): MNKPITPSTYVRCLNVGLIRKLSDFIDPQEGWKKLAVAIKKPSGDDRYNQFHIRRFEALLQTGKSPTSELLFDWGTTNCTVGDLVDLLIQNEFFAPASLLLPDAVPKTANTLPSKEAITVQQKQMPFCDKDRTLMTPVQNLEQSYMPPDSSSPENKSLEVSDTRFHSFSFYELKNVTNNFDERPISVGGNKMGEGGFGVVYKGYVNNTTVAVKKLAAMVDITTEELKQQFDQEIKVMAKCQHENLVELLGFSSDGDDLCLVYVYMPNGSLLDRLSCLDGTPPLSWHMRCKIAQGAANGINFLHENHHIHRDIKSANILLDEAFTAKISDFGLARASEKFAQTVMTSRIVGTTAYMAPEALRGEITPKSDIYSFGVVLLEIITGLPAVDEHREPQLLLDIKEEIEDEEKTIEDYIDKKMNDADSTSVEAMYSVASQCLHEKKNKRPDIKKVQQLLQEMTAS
Description: Enzymatic radiometric [Km ATP] KinaseProfiler LeadHunter assay, kinase: IRAK4, catalogue number: 14-599KP The assay has been performed by Eurofins Discovery. The conditions noted are these: ATP concentration 200.0 uM, Test compound concentration 10.0 uM.

Experiment [8] deals with Mitogen-activated protein kinase kinase kinase 9 (Homo sapiens) (UniProt P80192). The experiment in a line: Enzymatic radiometric [Km ATP] KinaseProfiler LeadHunter assay, kinase: MLK1, catalogue number: 14-690KP The assay has been performed by Eurofins Discovery. The conditions noted are these: ATP concentration 45.0 uM, Test compound concentration 10.0 uM.
Experiment [9] deals with Serine/threonine-protein kinase PLK3 (Homo sapiens) (UniProt Q9H4B4). Description: Enzymatic radiometric [Km ATP] KinaseProfiler LeadHunter assay, kinase: Plk3, catalogue number: 14-572KP The assay has been performed by Eurofins Discovery. The conditions noted are these: ATP concentration 70.0 uM, Test compound concentration 10.0 uM.
Experiment [10] has as its target Protein kinase C theta type (Homo sapiens) (UniProt Q04759). Description: Enzymatic radiometric [Km ATP] KinaseProfiler LeadHunter assay, kinase: PKC-theta, catalogue number: 14-444KP The assay has been performed by Eurofins Discovery. The conditions noted are these: ATP concentration 15.0 uM, Test compound concentration 10.0 uM.
In experiment [11] the target is cAMP-dependent protein kinase catalytic subunit alpha (Homo sapiens) (UniProt P17612). Description: Enzymatic radiometric [Km ATP] KinaseProfiler LeadHunter assay, kinase: PKA, catalogue number: 14-440KP The assay has been performed by Eurofins Discovery. The conditions noted are these: ATP concentration 10.0 uM, Test compound concentration 10.0 uM.
Experiment [12] deals with PI3-kinase p110-delta/p85-alpha (Homo sapiens) (UniProt P27986+O00329). The experiment in a line: Enzymatic radiometric [Km ATP] KinaseProfiler LeadHunter assay, kinase: PI3 Kinase (p110-delta/p85-alpha), catalogue number: 14-604KP The assay has been performed by Eurofins Discovery. Type of experiment: protein-complex assay. The conditions noted are these: ATP concentration 200.0 uM, Test compound concentration 10.0 uM.

Experiment [13] deals with Vascular endothelial growth factor receptor 2 (Homo sapiens) (UniProt P35968). The experiment in a line: Enzymatic radiometric [Km ATP] KinaseProfiler LeadHunter assay, kinase: KDR, catalogue number: 14-630KP The assay has been performed by Eurofins Discovery. The conditions noted are these: ATP concentration 90.0 uM, Test compound concentration 10.0 uM.
The target of experiment [14] is T2, Inhibitor of nuclear factor kappa-B kinase subunit alpha (Homo sapiens) (UniProt O15111).
T2 sequence (whole entry): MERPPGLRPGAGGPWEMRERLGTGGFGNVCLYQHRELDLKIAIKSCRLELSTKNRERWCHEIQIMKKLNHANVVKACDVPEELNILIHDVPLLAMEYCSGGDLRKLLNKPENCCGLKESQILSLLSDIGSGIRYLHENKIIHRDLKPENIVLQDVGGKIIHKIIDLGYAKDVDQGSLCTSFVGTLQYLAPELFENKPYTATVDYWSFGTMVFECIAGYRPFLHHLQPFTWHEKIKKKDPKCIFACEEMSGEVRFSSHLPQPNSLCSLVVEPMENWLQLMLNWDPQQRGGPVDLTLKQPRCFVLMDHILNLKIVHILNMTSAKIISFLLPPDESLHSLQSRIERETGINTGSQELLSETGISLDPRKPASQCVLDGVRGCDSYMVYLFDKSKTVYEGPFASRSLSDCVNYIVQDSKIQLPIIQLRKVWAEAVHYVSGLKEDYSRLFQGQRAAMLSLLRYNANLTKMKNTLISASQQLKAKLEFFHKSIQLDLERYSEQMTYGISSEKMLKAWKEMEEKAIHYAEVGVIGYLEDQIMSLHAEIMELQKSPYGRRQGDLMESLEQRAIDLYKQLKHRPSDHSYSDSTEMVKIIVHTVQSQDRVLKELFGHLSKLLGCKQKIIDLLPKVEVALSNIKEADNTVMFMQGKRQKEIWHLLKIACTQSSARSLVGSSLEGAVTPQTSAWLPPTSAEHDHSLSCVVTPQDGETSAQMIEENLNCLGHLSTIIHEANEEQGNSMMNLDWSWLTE
The experiment in a line: Enzymatic radiometric [Km ATP] KinaseProfiler LeadHunter assay, kinase: IKK-alpha, catalogue number: 14-461KP The assay has been performed by Eurofins Discovery. The conditions noted are these: ATP concentration 10.0 uM, Test compound concentration 10.0 uM.

Experiment [15] has as its target Epidermal growth factor receptor (Homo sapiens) (UniProt P00533). Description: Enzymatic radiometric [Km ATP] KinaseProfiler LeadHunter assay, kinase: EGFR, catalogue number: 14-531KP The assay has been performed by Eurofins Discovery. The conditions noted are these: ATP concentration 10.0 uM, Test compound concentration 10.0 uM.

From ChEMBL document CHEMBL5442741, “ASAP - In vitro kinase profile” (2024) come the findings set out here.

Sequence of Vascular endothelial growth factor receptor 2 (Homo sapiens) (P35968 whole entry): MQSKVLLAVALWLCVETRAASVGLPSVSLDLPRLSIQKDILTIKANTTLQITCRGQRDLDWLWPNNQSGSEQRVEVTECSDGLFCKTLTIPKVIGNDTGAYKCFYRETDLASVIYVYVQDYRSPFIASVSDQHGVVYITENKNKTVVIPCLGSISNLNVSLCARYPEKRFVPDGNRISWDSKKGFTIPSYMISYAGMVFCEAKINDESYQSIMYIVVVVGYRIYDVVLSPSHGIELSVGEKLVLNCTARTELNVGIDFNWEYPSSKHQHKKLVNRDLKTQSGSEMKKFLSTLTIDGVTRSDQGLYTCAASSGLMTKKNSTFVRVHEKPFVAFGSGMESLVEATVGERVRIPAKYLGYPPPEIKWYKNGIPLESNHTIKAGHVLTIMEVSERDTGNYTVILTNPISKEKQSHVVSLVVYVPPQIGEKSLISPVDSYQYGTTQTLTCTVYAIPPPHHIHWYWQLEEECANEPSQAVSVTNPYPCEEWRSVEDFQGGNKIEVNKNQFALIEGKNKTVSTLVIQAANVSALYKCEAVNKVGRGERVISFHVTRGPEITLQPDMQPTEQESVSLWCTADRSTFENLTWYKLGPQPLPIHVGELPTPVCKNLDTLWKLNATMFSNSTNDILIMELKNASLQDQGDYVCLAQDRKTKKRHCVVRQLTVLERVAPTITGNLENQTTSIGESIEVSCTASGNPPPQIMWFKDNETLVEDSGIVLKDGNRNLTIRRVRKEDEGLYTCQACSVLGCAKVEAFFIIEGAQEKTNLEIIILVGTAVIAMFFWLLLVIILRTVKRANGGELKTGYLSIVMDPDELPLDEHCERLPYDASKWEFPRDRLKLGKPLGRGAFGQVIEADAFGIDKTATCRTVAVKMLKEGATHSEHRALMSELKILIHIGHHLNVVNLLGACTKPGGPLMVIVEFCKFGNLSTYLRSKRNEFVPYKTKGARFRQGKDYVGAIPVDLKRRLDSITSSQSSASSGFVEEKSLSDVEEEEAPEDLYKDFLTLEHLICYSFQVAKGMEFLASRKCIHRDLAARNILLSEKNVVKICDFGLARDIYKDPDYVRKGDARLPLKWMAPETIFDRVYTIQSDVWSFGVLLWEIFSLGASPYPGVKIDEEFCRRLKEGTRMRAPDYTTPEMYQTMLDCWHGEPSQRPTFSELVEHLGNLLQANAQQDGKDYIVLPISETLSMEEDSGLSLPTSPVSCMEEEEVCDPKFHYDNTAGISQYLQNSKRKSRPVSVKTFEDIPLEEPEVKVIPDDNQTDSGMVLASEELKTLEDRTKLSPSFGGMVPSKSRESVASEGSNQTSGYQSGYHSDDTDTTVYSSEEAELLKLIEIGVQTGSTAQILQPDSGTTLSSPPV
Sequence of Serine/threonine-protein kinase pim-1 (Homo sapiens) (P11309 whole entry, looked up): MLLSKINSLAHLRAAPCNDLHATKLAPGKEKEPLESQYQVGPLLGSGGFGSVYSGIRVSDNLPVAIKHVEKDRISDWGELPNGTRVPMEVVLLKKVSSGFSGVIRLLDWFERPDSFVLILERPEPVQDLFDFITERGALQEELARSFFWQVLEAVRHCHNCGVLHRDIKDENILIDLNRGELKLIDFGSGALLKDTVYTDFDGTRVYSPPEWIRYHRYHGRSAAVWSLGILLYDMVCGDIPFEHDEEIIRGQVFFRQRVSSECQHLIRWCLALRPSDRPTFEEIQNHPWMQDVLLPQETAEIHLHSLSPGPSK
Sequence of Protein kinase C theta type (Homo sapiens) (Q04759 whole entry, looked up): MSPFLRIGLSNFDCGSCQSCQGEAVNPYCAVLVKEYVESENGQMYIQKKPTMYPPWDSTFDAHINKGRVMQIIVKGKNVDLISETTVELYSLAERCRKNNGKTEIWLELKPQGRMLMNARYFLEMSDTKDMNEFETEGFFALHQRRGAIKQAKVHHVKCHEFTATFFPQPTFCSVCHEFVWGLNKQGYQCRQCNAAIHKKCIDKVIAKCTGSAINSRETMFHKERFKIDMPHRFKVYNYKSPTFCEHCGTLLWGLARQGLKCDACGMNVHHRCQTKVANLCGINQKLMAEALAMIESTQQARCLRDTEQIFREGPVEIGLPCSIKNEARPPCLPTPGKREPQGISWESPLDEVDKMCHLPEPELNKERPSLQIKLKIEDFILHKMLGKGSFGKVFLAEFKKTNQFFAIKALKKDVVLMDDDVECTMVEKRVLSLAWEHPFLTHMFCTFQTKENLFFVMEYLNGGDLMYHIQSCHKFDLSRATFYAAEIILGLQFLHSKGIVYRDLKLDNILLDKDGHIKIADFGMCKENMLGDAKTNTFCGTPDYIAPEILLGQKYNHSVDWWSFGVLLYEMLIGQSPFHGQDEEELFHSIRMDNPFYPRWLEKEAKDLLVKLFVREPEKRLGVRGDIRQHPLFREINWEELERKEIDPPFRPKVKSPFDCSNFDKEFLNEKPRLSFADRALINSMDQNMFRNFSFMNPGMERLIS
Sequence of Insulin-like growth factor 1 receptor (Homo sapiens) (P08069 31-736 limits assumed): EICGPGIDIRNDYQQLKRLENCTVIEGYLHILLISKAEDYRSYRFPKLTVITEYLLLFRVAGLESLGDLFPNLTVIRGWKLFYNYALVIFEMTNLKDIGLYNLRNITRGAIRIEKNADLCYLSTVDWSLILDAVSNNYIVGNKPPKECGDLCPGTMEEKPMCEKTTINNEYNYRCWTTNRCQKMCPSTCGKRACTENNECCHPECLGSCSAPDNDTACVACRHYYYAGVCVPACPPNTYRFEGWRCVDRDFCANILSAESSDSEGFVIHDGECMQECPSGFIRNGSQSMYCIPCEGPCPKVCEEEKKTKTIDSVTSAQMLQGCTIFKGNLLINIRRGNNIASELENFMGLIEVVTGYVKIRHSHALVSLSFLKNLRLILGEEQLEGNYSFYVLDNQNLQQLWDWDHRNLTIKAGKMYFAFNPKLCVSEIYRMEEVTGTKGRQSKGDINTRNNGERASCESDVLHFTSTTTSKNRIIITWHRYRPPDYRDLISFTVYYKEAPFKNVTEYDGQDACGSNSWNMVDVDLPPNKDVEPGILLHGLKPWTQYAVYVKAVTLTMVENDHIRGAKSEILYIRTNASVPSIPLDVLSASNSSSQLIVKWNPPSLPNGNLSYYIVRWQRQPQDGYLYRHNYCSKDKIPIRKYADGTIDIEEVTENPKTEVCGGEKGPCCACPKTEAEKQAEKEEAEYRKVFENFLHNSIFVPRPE
Sequence of Insulin-like growth factor 1 receptor (Homo sapiens) (P08069 741-1367 limits assumed): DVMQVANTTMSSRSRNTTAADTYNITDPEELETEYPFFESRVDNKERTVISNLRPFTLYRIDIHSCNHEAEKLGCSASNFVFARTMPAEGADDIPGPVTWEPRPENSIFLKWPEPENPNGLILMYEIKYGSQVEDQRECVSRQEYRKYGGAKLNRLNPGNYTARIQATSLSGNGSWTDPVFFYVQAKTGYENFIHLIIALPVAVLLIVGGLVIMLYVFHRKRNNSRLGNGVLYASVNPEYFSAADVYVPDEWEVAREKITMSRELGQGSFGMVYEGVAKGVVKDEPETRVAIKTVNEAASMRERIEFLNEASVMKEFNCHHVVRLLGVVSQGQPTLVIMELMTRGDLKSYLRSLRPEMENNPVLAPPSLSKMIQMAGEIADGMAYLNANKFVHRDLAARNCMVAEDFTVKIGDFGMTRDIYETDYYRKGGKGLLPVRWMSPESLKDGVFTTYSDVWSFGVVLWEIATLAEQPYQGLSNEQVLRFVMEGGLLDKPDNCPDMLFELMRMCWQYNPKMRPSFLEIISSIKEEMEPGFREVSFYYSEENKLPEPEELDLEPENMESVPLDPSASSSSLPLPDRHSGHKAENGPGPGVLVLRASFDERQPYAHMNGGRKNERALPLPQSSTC
Sequence of RAF proto-oncogene serine/threonine-protein kinase (Homo sapiens) (P04049 whole entry): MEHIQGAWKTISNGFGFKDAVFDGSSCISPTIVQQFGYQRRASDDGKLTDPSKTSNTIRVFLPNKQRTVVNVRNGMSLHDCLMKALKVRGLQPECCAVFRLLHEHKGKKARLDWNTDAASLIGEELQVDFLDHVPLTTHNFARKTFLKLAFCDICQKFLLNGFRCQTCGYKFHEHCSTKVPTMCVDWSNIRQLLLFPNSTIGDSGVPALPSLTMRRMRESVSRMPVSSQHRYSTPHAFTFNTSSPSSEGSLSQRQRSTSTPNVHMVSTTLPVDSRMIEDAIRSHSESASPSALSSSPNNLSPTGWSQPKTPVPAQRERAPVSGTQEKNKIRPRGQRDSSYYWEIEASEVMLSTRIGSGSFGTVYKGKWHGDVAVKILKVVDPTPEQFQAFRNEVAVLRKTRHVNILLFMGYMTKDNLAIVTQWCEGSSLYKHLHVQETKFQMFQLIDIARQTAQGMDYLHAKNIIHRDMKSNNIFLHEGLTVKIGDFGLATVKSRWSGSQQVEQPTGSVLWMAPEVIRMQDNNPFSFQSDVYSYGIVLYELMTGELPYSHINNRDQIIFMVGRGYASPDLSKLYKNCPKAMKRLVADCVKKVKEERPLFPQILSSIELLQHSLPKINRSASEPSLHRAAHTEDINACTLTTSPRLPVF
Sequence of Serine/threonine-protein kinase PLK3 (Homo sapiens) (Q9H4B4 whole entry, looked up): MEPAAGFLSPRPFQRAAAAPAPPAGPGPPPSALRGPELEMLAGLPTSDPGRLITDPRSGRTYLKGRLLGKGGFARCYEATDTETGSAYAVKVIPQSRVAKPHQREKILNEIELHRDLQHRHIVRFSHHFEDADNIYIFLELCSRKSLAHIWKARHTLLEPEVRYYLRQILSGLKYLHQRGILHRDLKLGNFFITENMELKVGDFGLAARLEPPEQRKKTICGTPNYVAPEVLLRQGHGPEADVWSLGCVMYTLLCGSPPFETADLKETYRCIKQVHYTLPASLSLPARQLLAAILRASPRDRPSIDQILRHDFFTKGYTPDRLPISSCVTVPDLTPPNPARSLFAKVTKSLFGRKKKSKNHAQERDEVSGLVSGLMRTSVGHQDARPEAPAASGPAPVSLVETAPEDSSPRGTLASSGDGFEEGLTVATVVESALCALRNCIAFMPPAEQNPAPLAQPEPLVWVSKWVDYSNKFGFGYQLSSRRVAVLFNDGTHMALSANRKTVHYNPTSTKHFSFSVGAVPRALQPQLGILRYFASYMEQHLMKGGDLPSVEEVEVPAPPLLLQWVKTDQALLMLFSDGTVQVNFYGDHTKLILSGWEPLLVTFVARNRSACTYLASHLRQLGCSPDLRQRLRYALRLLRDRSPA

On to `CC(C)[C@@H](Nc1ncnc2[nH]c(C(=O)N[C@@H]3CCN(C)C3)cc12)c1ccc2c(c1)S(=O)(=O)CCC2`, for which the Activity in [1] turned out to be 100%; in experiment [2], 97%; in experiment [3] it was 104%; in [4], 106%; in experiment [5] it was 99%; in [6], 105%. For the same molecule, the Activity in experiment [7] came to 105%; in experiment [8], 96%; in [9], 98%; in experiment [10], 102%; in [11] it was 89%; in experiment [12] it was 99%. Besides, the figures for the Activity in experiment [13], in experiment [14] and in experiment [15] were 96%, 82% and 102%, respectively.

For the molecule `Cn1ncc(-c2cc3c(N[C@@H](c4ccc5c(n4)OCCO5)C(C)(C)C)ncnc3[nH]2)c1C#N`, the Activity in experiment [1] was determined as 102%; in [2], 107%; in experiment [3] it was 77%; in [4], 117%; in experiment [5], 111%; in experiment [6], 87%. Also, the Activity in experiment [7] was determined as 132%; in experiment [8], 94%; in experiment [9], 77%; in [10] it was 96%; in experiment [11] it was 95%; in experiment [12] it was 73%. The Activity in experiment [13] came to 83%; in [14] it was 125%; in experiment [15], 99%.

Regarding `COc1ccc([C@H](Cc2nnn[nH]2)NC(=O)c2ncnc3[nH]ccc23)cc1`, the Activity amounted to 102% in experiment [1]; 99% in experiment [2]; 103% in experiment [3]; 106% in experiment [4]; 107% in [5]; 103% in [6]. Also, the Activity in [7] was 109%; in [8] it was 87%; in [9], 102%; in experiment [10], 91%; in experiment [11], 88%; in [12] it was 97%. Further, the Activity in [13] is 97%; in experiment [14], 98%; in experiment [15] it was 97%.

As for `CNCc1cc(-c2cc3c(N[C@@H](c4ccc5c(c4)S(=O)(=O)CCC5)C(C)C)ncnc3[nH]2)co1`, the Activity was 78% in [1]; 93% in experiment [2]; 99% in experiment [3]; 99% in [4]; 94% in experiment [5]; 100% in experiment [6]. Moreover, the Activity in experiment [7] was determined as 100%; in [8] it was 86%; in experiment [9], 124%; in experiment [10], 106%; in [11], 96%; in experiment [12] it was 80%. The figures for the Activity in experiment [13], in [14] and in experiment [15] were 88%, 79% and 97%, respectively.
